{"source": "patent US10219516B2", "about": "“Molecules having pesticidal utility, and intermediates, compositions, and processes, related thereto” (priority 2015, dated 2019)", "type_in_all_cases": "in vivo", "key": {"[1]": {"system": "Yellow Fever Mosquito (Aedes aegypti, AEDSAE)", "experiment": "Bioassay on Yellow Fever Mosquito (YFM), 96-well plate larval assay", "settings": "Yellow Fever Mosquito, 96-well plate larval assay", "summary_of_the_method": "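Aedes aegypti larvae (about 1 day old) in liver-powder water were added to plates dispensed from DMSO master plates (4000 ppm stock) diluted with 90:10 water/acetone; six replicate plates per master. Lidded plates were held at room temperature for 3 days, then each well was scored for mortality.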"}, "[2]": {"system": "Cabbage Looper (Trichoplusia ni, TRIPNI)", "experiment": "Bioassay on Cabbage Looper (CL), 128-well diet tray assay", "settings": "Trichoplusia ni; Cabbage Looper, 128-well diet tray assay; read-out: CL rating", "summary_of_the_method": "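Test molecule is dissolved in 90:10 acetone-water and applied at 50 μg/cm^2 onto artificial diet, then dried. One to five second-instar larvae go into each of eight wells. Trays, sealed but vented, stay at 25° C., 14:10 light-dark, five to seven days, after which mortality is averaged.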"}, "[3]": {"system": "Beet Armyworm (Spodoptera exigua, LAPHEG)", "experiment": "Bioassay on Beet Armyworm (BAW), 128-well diet tray assay", "settings": "Beet Armyworm, 128-well diet tray assay, read-out: BAW rating", "summary_of_the_method": "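Percent mortality, averaged across eight replicate wells, was scored after five to seven days at 25° C. under a 14:10 light-dark cycle. Each well's diet carried 50 μg/cm^2 of the dried test molecule and held one to five second instar larvae.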"}}, "data": [{"smiles": "Nc1cc(NC(=O)c2cc(NC(=O)[C@H]3[C@H](c4cc(Cl)c(Cl)c(Cl)c4)C3(Cl)Cl)ccc2Cl)c(F)cc1F", "note": "[F402, N-(5-Amino-2,4-difluorophenyl)-2-chloro-5-((1R,3R)-2,2-dichloro-3-(3,4,5-trichlorophenyl)cyclopropane-1-carboxamido)benzamide]", "values": [{"measurement": "YFM rating", "setting": "[1]", "value": "A (80-100)"}, {"measurement": "pest or weed control at 50 µg/cm2", "setting": "[2]", "value": "50 to 100", "unit": "%"}, {"measurement": "pest or weed control at 50 µg/cm2", "setting": "[3]", "value": "50 to 100", "unit": "%"}]}, {"smiles": "Nc1cc(NC(=O)c2cc(NC(=O)[C@H]3[C@H](c4ccc(F)c(Cl)c4)C3(Cl)Cl)ccc2Cl)c(F)cc1F", "note": "[F403, N-(5-Amino-2,4-difluorophenyl)-2-chloro-5-((1R,3R)-2,2-dichloro-3-(3-chloro-4-fluorophenyl)cyclopropane-1-carboxamido)benzamide]", "values": [{"measurement": "YFM rating", "setting": "[1]", "value": "A (80-100)"}, {"measurement": "pest or weed control at 50 µg/cm2", "setting": "[2]", "value": "50 to 100", "unit": "%"}, {"measurement": "pest or weed control at 50 µg/cm2", "setting": "[3]", "value": "50 to 100", "unit": "%"}]}, {"smiles": "Nc1c(F)cc(F)cc1NC(=O)c1cc(NC(=O)[C@H]2[C@H](c3cc(Cl)c(Cl)c(Cl)c3)C2(Cl)Cl)ccc1Cl", "note": "[F404, N-(2-Amino-3,5-difluorophenyl)-2-chloro-5-((1R,3R)-2,2-dichloro-3-(3,4,5-trichlorophenyl)cyclopropane-1-carboxamido)benzamide]", "values": [{"measurement": "YFM rating", "setting": "[1]", "value": "A (80-100)"}, {"measurement": "pest or weed control at 50 µg/cm2", "setting": "[2]", "value": "50 to 100", "unit": "%"}, {"measurement": "pest or weed control at 50 µg/cm2", "setting": "[3]", "value": "50 to 100", "unit": "%"}]}, {"smiles": "Nc1ccc(F)cc1NC(=O)c1cc(NC(=O)[C@H]2[C@H](c3cc(Cl)c(Cl)c(Cl)c3)C2(Cl)Cl)ccc1Cl", "note": "[F405, N-(2-Amino-5-fluorophenyl)-2-chloro-5-((1R,3R)-2,2-dichloro-3-(3,4,5-trichlorophenyl)cyclopropane-1-carboxamido)benzamide]", "values": [{"measurement": "YFM rating", "setting": "[1]", "value": "A (80-100)"}, {"measurement": "pest or weed control at 50 µg/cm2", "setting": "[2]", "value": "50 to 100", "unit": "%"}, {"measurement": "pest or weed control at 50 µg/cm2", "setting": "[3]", "value": "50 to 100", "unit": "%"}]}, {"smiles": "Nc1cc(F)cc(F)c1NC(=O)c1cc(NC(=O)[C@H]2[C@H](c3cc(Cl)cc(Cl)c3)C2(Cl)Cl)ccc1Cl", "note": "[F406, N-(2-Amino-4,6-difluorophenyl)-2-chloro-5-((1R,3R)-2,2-dichloro-3-(3,5-dichlorophenyl)cyclopropane-1-carboxamido)benzamide]", "values": [{"measurement": "YFM rating", "setting": "[1]", "value": "A (80-100)"}, {"measurement": "pest or weed control at 50 µg/cm2", "setting": "[2]", "value": "50 to 100", "unit": "%"}, {"measurement": "pest or weed control at 50 µg/cm2", "setting": "[3]", "value": "50 to 100", "unit": "%"}]}, {"smiles": "Nc1cc(F)cc(F)c1NC(=O)c1cc(NC(=O)[C@H]2[C@H](c3ccc(Cl)c(Cl)c3)C2(Cl)Cl)ccc1Cl", "note": "[F407, N-(2-amino-4,6-difluorophenyl)-2-chloro-5-((1R,3R)-2,2-dichloro-3-(3,4-dichlorophenyl)cyclopropane-1-carboxamido)benzamide]", "values": [{"measurement": "YFM rating", "setting": "[1]", "value": "A (80-100)"}, {"measurement": "pest or weed control at 50 µg/cm2", "setting": "[2]", "value": "50 to 100", "unit": "%"}, {"measurement": "pest or weed control at 50 µg/cm2", "setting": "[3]", "value": "50 to 100", "unit": "%"}]}, {"smiles": "Nc1cc(F)cc(F)c1NC(=O)c1cc(NC(=O)[C@H]2[C@H](c3cc(Cl)c(Cl)c(Cl)c3)C2(Cl)Cl)ccc1Cl", "note": "[F408, N-(2-Amino-4,6-difluorophenyl)-2-chloro-5-((1R,3R)-2,2-dichloro-3-(3,4,5-trichlorophenyl)cyclopropane-1-carboxamido)benzamide]", "values": [{"measurement": "YFM rating", "setting": "[1]", "value": "A (80-100)"}, {"measurement": "pest or weed control at 50 µg/cm2", "setting": "[2]", "value": "50 to 100", "unit": "%"}, {"measurement": "pest or weed control at 50 µg/cm2", "setting": "[3]", "value": "50 to 100", "unit": "%"}]}, {"smiles": "Nc1cc(F)cc(F)c1NC(=O)c1cc(NC(=O)[C@H]2[C@H](c3ccc(F)c(Cl)c3)C2(Cl)Cl)ccc1Cl", "note": "[F409, N-(2-Amino-4,6-difluorophenyl)-2-chloro-5-((1R,3R)-2,2-dichloro-3-(3-chloro-4-fluorophenyl)cyclopropane-1-carboxamido)benzamide]", "values": [{"measurement": "YFM rating", "setting": "[1]", "value": "A (80-100)"}, {"measurement": "pest or weed control at 50 µg/cm2", "setting": "[2]", "value": "50 to 100", "unit": "%"}, {"measurement": "pest or weed control at 50 µg/cm2", "setting": "[3]", "value": "50 to 100", "unit": "%"}]}, {"smiles": "O=C(Nc1cc(F)cc([N+](=O)[O-])c1)c1cc(NC(=O)[C@H]2[C@H](c3cc(Cl)c(Cl)c(Cl)c3)C2(Cl)Cl)ccc1Cl", "note": "[F417, 2-Chloro-5-((1R,3R)-2,2-dichloro-3-(3,4,5-trichlorophenyl)cyclopropane-1-carboxamido)-N-(3-fluoro-5-nitrophenyl)benzamide]", "values": [{"measurement": "YFM rating", "setting": "[1]", "value": "A (80-100)"}, {"measurement": "pest or weed control at 50 µg/cm2", "setting": "[2]", "value": "50 to 100", "unit": "%"}, {"measurement": "pest or weed control at 50 µg/cm2", "setting": "[3]", "value": "50 to 100", "unit": "%"}]}, {"smiles": "O=C(Nc1cc(F)cc([N+](=O)[O-])c1)c1cc(NC(=O)[C@H]2[C@H](c3ccc(F)c(Cl)c3)C2(Cl)Cl)ccc1Cl", "note": "[F418, 2-Chloro-5-((1R,3R)-2,2-dichloro-3-(3-chloro-4-fluorophenyl)cyclopropane-1-carboxamido)-N-(3-fluoro-5-nitrophenyl)benzamide]", "values": [{"measurement": "YFM rating", "setting": "[1]", "value": "A (80-100)"}, {"measurement": "pest or weed control at 50 µg/cm2", "setting": "[2]", "value": "50 to 100", "unit": "%"}, {"measurement": "pest or weed control at 50 µg/cm2", "setting": "[3]", "value": "50 to 100", "unit": "%"}]}, {"smiles": "Nc1cc(F)cc(NC(=O)c2cc(NC(=O)[C@H]3[C@H](c4cc(Cl)cc(Cl)c4)C3(Cl)Cl)ccc2Cl)c1", "note": "[F419, N-(3-Amino-5-fluorophenyl)-2-chloro-5-((1R,3R)-2,2-dichloro-3-(3,5-dichlorophenyl)cyclopropane-1-carboxamido)benzamide]", "values": [{"measurement": "YFM rating", "setting": "[1]", "value": "B (More than 0-Less than 80)"}, {"measurement": "pest or weed control at 50 µg/cm2", "setting": "[2]", "value": "50 to 100", "unit": "%"}, {"measurement": "pest or weed control at 50 µg/cm2", "setting": "[3]", "value": "50 to 100", "unit": "%"}]}, {"smiles": "Nc1c(F)cc(F)cc1NC(=O)c1cc(NC(=O)[C@H]2[C@H](c3ccc(F)c(Cl)c3)C2(Cl)Cl)ccc1Cl", "note": "[F420, N-(2-Amino-3,5-difluorophenyl)-2-chloro-5-((1R,3R)-2,2-dichloro-3-(3-chloro-4-fluorophenyl)cyclopropane-1-carboxamido)benzamide]", "values": [{"measurement": "YFM rating", "setting": "[1]", "value": "A (80-100)"}, {"measurement": "pest or weed control at 50 µg/cm2", "setting": "[2]", "value": "50 to 100", "unit": "%"}, {"measurement": "pest or weed control at 50 µg/cm2", "setting": "[3]", "value": "50 to 100", "unit": "%"}]}, {"smiles": "Nc1ccc(F)cc1NC(=O)c1cc(NC(=O)[C@H]2[C@H](c3ccc(F)c(Cl)c3)C2(Cl)Cl)ccc1Cl", "note": "[F421, N-(2-Amino-5-fluorophenyl)-2-chloro-5-((1R,3R)-2,2-dichloro-3-(3-chloro-4-fluorophenyl)cyclopropane-1-carboxamido)benzamide]", "values": [{"measurement": "YFM rating", "setting": "[1]", "value": "A (80-100)"}, {"measurement": "pest or weed control at 50 µg/cm2", "setting": "[2]", "value": "50 to 100", "unit": "%"}, {"measurement": "pest or weed control at 50 µg/cm2", "setting": "[3]", "value": "50 to 100", "unit": "%"}]}, {"smiles": "Nc1cccc(NC(=O)c2cc(NC(=O)[C@H]3[C@H](c4cc(Cl)cc(Cl)c4)C3(Cl)Cl)ccc2Cl)c1F", "note": "[F426, N-(3-Amino-2-fluorophenyl)-2-chloro-5-((1R,3R)-2,2-dichloro-3-(3,5-dichlorophenyl)cyclopropane-1-carboxamido)benzamide]", "values": [{"measurement": "YFM rating", "setting": "[1]", "value": "A (80-100)"}, {"measurement": "pest or weed control at 50 µg/cm2", "setting": "[2]", "value": "50 to 100", "unit": "%"}, {"measurement": "pest or weed control at 50 µg/cm2", "setting": "[3]", "value": "50 to 100", "unit": "%"}]}, {"smiles": "Nc1ccc(F)c(NC(=O)c2cc(NC(=O)[C@H]3[C@H](c4cc(Cl)cc(Cl)c4)C3(Cl)Cl)ccc2Cl)c1", "note": "[F427, N-(5-Amino-2-fluorophenyl)-2-chloro-5-((1R,3R)-2,2-dichloro-3-(3,5-dichlorophenyl)cyclopropane-1-carboxamido)benzamide]", "values": [{"measurement": "YFM rating", "setting": "[1]", "value": "A (80-100)"}, {"measurement": "pest or weed control at 50 µg/cm2", "setting": "[2]", "value": "50 to 100", "unit": "%"}, {"measurement": "pest or weed control at 50 µg/cm2", "setting": "[3]", "value": "50 to 100", "unit": "%"}]}, {"smiles": "Nc1ccc(F)c(NC(=O)c2cc(NC(=O)[C@H]3[C@H](c4ccc(Cl)c(Cl)c4)C3(Cl)Cl)ccc2Cl)c1", "note": "[F428, N-(5-Amino-2-fluorophenyl)-2-chloro-5-((1R,3R)-2,2-dichloro-3-(3,4-dichlorophenyl)cyclopropane-1-carboxamido)benzamide]", "values": [{"measurement": "YFM rating", "setting": "[1]", "value": "A (80-100)"}, {"measurement": "pest or weed control at 50 µg/cm2", "setting": "[2]", "value": "50 to 100", "unit": "%"}, {"measurement": "pest or weed control at 50 µg/cm2", "setting": "[3]", "value": "50 to 100", "unit": "%"}]}, {"smiles": "Nc1ccc(F)c(NC(=O)c2cc(NC(=O)[C@H]3[C@H](c4cc(Cl)c(Cl)c(Cl)c4)C3(Cl)Cl)ccc2Cl)c1", "note": "[F429, N-(5-Amino-2-fluorophenyl)-2-chloro-5-((1R,3R)-2,2-dichloro-3-(3,4,5-trichlorophenyl)cyclopropane-1-carboxamido)benzamide]", "values": [{"measurement": "YFM rating", "setting": "[1]", "value": "A (80-100)"}, {"measurement": "pest or weed control at 50 µg/cm2", "setting": "[2]", "value": "50 to 100", "unit": "%"}, {"measurement": "pest or weed control at 50 µg/cm2", "setting": "[3]", "value": "50 to 100", "unit": "%"}]}]}
